Results: patent publication US12516038B2, “Inhibitors of antigen presentation by HLA-DR” (Janssen Pharmaceutica NV, priority 2020, dated 2026)

Tests used:
[1] = target: HLA-DRB1*0401 (Homo sapiens (Human), UniProt P01903+P01911, A100K/A169T/DEL228-266/F76Y/I96L/K127E/L162R/M171V/N62H/P40V/Q125Y/R42H/S133A/S149N/S66Y/V115G/V209L/W38E); experiment: HLA-DR4 HTRF assay; assay type: binding; details: inhibition of loading of Alexa Fluor 647-labeled Cit-CII peptide onto HLA-DR4 (CLIP cleaved)
Description: (§1) The screening was made through two sets of HLA-DR/peptide-dependent assays: a peptide-dependent Homogeneous Time Resolved Fluorescence (HTRF) binding assay followed by an HLA-DR dependent, peptide-specific T cell functional assay (HLA-DR4-restricted peptide-specific T cell-based assay hybridoma assay). The HTRF binding assay was designed to measure the ability of the small molecule to inhibit the loading of a fluorescently labeled high-affinity peptide onto HLA-DR peptide binding groove. The peptide-specific T cell functional assay assesses T cell activation resulting from proper peptide presentation onto HLA-DR expressed on the surface of the antigen-presenting cells to the T cell and is used to screen compounds able to inhibit such HLA-DR/peptide-dependent T cell activation.
The HLA-DR4 HTRF assay is based on HTRF technology and designed to measure ability of compounds to prevent loading of high-affinity Alexa Fluor 647-labeled Citrullinated Collagen 111236-1249 peptide (named Cit-CII/AF647, aa1236-1249, LQYM-Cit-ADQAAGGLR; Alexa Fluor 647 dye commercially available from Invitrogen) onto HLA-DRB1*0401. The HTRF assay technology is based on the energy transfer between two fluorophores, a donor and an acceptor, when in close proximity. The HLA-DR4 protein construct was uniquely designed for this assay and has (i) the α and […] subunits fused to human Fc chains and (ii) the invariant chain-associated peptide (CLIP peptide, aa85-101), the universal moderate/low-affinity HLA-DR binder, attached to the beta chain through a HRV3C protease-cleavable linker.
Because of the low stability of peptide free HLA-DR4 heterodimer, the construct was purified and delivered with CLIP peptide attached to the N-terminal of the β chain. The HLA-DR4 heterodimer was pre-treated with 3 μL HRV3C protease (Novagen E71493-3) (˜2 U/μL) per mg of the cleavable protein to cleave CLIP peptide and incubated overnight (>16 hrs) at 4° C. This method yielded at least 80% cleavage and allowed the CLIP peptide to be potentially exchanged with the fluorescently labeled high affinity cit-CII1236-1249 peptide. A batch of […] protein with CLIP cleaved was prepared for multiple experiments and was stable for several months when stored at 4° C.
In this assay, anti-human Fc antibody labeled with Tb-Cryptate probe was used as the donor (commercially available from Cisbio—PAb Anti-human IgG-Tb Cryptate, Cat #61HFCTAB) and high affinity peptide Citrullinated CII (cit-CII) labeled with Alexa 647 fluorophore was utilized as the acceptor. Inhibitors of the exchange of the pre-cleaved CLIP peptide for the high affinity cit-CII1236-1249 peptide onto HLA-DRB1*04:01 caused a decrease in HTRF signal as measured by the ratio of the 665 nm/620 nm emitted signal. Screening compounds were robotically pre-dispensed (150 nL, Hummingbird, DigiLab/CyBio AG) onto black, round bottom, nontreated, 1536-well assay plates (Corning #3939), were incubated with 3 nM HLA-DR4 (with CLIP cleaved) plus 1 nM Human IgG-Tb (anti-Fc-Tb) Antibody for 45 min prior to addition of 40 nM Cit-CII peptide labeled with Alexa-647. The negative control was DMSO plus 1 nM Human IgG-Tb (anti-Fc-Tb) Antibody, incubated for 45 minutes before addition of 40 nM Cit-CII peptide labeled with Alexa-647. The positive control was DMSO plus 3 nM HLA-DR4 (with CLIP cleaved) plus 1 nM Human IgG-Tb (anti-Fc-Tb) Antibody with 40 nM Cit-CII peptide labeled with Alexa-647 added after a 45-minute incubation. Plates were centrifuged at 1000 rpm for 1 minute and then incubated at 37° C., at 90% relative humidity for 90 minutes. After incubation, plates were read on a spectrophotometer, the Pherastar FS (BMG Labtech), in HTRF mode. The HTRF ratio as well as percent inhibition was calculated. Curve fitting and IC50 calculation for dose response data was performed by Microsoft Excel, 3DX (Janssen proprietary software) or Graphpad Prism (Graphpad Software, San Diego, CA). […]

[2] = system: HLA-DR4 restricted mouse T cell hybridoma line (DR4.CII.36.8) with HLA-DRB1*04:01-expressing Boleth cells; experiment: HLA-DR4-restricted peptide-specific T cell-based assay (hybridoma assay); details: Mus musculus, T-cell, 6 h, inhibition of IL-2 production, CII259-273 peptide presented by Boleth cells
Description: as §1
HLA-DR4-Restricted Peptide-Specific T Cell-Based Assay (Hybridoma Assay)
The hybridoma assay was used to measure compound inhibition of TL-2 production from an HLA-DR4 restricted mouse T cell hybridoma line (DR4.CII.36.8) that was antigen-specific for collagen II259-273 (CII259-273) peptide when presented with an HLA-DR4 expressing Antigen Presenting Cell (APC) cell line (i.e., Boleth).
To the HLA-DRB1*04:01-expressing B cell line (Boleth cell line from International Histocompatibility Working Group (IHWG), ref #IHW09031) was presented the collagen II 259-273 peptide (CII259-273, GIAGFKGEQGPKGEP) to mouse T cell hybridoma (DR4.CII.36.8 T cell hybridoma; clone 36.8, expressing a CII259-273-specific, HLA-DRB1*04:01-restricted T cell receptor). Upon proper CII259-273 peptide presentation, the T cell hybridoma was activated and thus produced IL-2 cytokine, whose level in the cell culture supernatant was detected using mouse IL-2 AlphaLISA kit (Perkin Elmer, Cat: AL511F).
This assay was performed in a 384-well plate (polypropylene V-bottom Greiner bio-one, ref #784075) by: (i) pre-incubation of 20 μL of 1.25 million/mL Boleth cells (25,000 cells) resuspended in DMEM/1% fetal calf serum (FCS; Gibco, ref #16140-071) with 20 μL of 2.5× final concentration of compound of interest in DMEM/1% serum/0.75% DMSO at 37° C. for 1 hr in the incubator, then (ii) 10 μL of 5 million/mL (50,000 cells) DR4.CII.36.8 T cell hybridoma cells resuspended in DMEM/1% FCS was added and incubated for 6 h at 37° C. in the incubator. Supernatant was then collected and mouse IL-2 detected using AlphaLISA kit (ref #AL511F). Compounds were tested in duplicate, with 8-point titration. Mean±SD of AlphaLISA units at each compound concentration was used for compound IC50 calculation. The negative control for this experiment was run without peptide stimulation and used a DMSO vehicle wherein no compound of interest was added. The positive control was run with peptide stimulation and used a DMSO vehicle wherein no compound of interest was added. Both the negative and positive controls were run in 8 replicates each. Curve fitting and IC50 calculation for dose response data was performed by GraphPad software 6 or higher (GraphPad Software, San Diego, CA). Dose response data was plotted versus the log of compound concentration and IC50 was determined using 4-parameter logistic (4-PL) curve fitting.

Row | Compound | IC50 [1] [nM] | IC50 [2] [nM]
1 | Cc1c(O[C@@H]2CCCc3cc(C(N)=O)ccc32)ccc2c1OCCC2=O (single isomer, unassigned) [Example 123a, (*R)-5-((8-methyl-4-oxochroman-7-yl)oxy)-5,6,7,8-tetrahydronaphthalene-2-carboxamide] | 630 | 7900
2 | Cc1c(O[C@@H](c2ccc(C(N)=O)cc2)c2cccc(F)c2)ccc2c1OCCC2=O (single isomer, unassigned) [Example 67b, (*S)-4-((3-Fluorophenyl)((8-methyl-4-oxochroman-7-yl)oxy)methyl)benzamide] | 2200 | > 15000
3 | Cc1cc(C(N)=O)ccc1[C@@H](Oc1ccc2c(c1)OCCC2=O)c1ccncc1 (single isomer, unassigned) [Example 36b, (*S)-3-methyl-4-(((4-oxochroman-7-yl)oxy)(pyridin-4-yl)methyl)benzamide] | 570 | 5100
4 | N#Cc1cc(O[C@H](c2ccncc2)c2ccc(C(N)=O)cc2)cc2c1C(=O)CCO2 (single isomer, unassigned) [Example 101b, (*S)-4-(((5-cyano-4-oxochroman-7-yl)oxy)(pyridin-4-yl)methyl)benzamide] | 1300 | 12000
5 | Cc1c(O[C@H](c2ccncc2)c2ccc(C(N)=O)c(F)c2)c(F)cc2c1OCCC2=O (single isomer, unassigned) [Example 95a, (*R)-2-fluoro-4-(((6-fluoro-8-methyl-4-oxochroman-7-yl)oxy)(pyridin-4-yl)methyl)benzamide] | 220 | 230
6 | Cc1c(O[C@H](c2ccc(Cl)cc2)c2ccc(C(N)=O)cc2)ccc2c1OCCC2=O (single isomer, unassigned) [Example 57b, (*S)-4-((4-chlorophenyl)((8-methyl-4-oxochroman-7-yl)oxy)methyl)benzamide] | 2000 | > 15000
7 | NC(=O)c1ccc([C@@H](Oc2ccc3c(c2)OCCC3=O)c2ccc(Cl)cc2)cc1 (single isomer, unassigned) [Example 30a, (*R)-4-((4-Chlorophenyl)((4-oxochroman-7-yl)oxy)methyl)benzamide] | 930 | 5900
8 | CC(C)c1c(O[C@@H](c2ccc(C(N)=O)cc2)c2cccc(C#N)c2)ccc2c1OCCC2=O (single isomer, unassigned) [Example 107b, (*S)-4-((3-cyanophenyl)((8-isopropyl-4-oxochroman-7-yl)oxy)methyl)benzamide] | 1100 | 2300
9 | O=C1CCOc2cc(OC(c3ccncc3)c3ccccn3)ccc21 (racemic) [Example 6, (R,S)-7-(Pyridin-2-yl(pyridin-4-yl)methoxy)chroman-4-one] | 1800 | 1400
10 | Cc1cc2c(c(C)c1O[C@H](c1ccc(F)cc1)c1ccc(C(N)=O)cc1)OCCC2=O (single isomer, unassigned) [Example 90b, (*S)-4-(((6,8-dimethyl-4-oxochroman-7-yl)oxy)(4-fluorophenyl)methyl)benzamide] | 590 | 7400
11 | O=C1CCOc2cc(O[C@@H](c3ccncc3)c3ccc(OCc4ccccc4)cc3)ccc21 (single isomer, unassigned) [Example 16a, (*R)-7-((4-(benzyloxy)phenyl)(pyridin-4-yl)methoxy)chroman-4-one] | 8100 | 12000
12 | CCOc1cc(C(N)=O)ccc1[C@@H](Oc1ccc2c(c1C)OCCC2=O)c1ccncc1 (single isomer, unassigned) [Example 83b, (*S)-3-ethoxy-4-(((8-methyl-4-oxochroman-7-yl)oxy)(pyridin-4-yl)methyl)benzamide] | 690 | 5000
13 | C[C@H]1COc2cc(O[C@H](c3ccncc3)c3ccc(C(N)=O)cc3)ccc2C1=O (single isomer, unassigned) [Example 44d, 4-((*S)—(((*S)-3-Methyl-4-oxochroman-7-yl)oxy)(pyridin-4-yl)methyl)benzamide] | 850 | > 15000
14 | COc1cc(C(N)=O)ccc1[C@H](Oc1ccc2c(c1C)OCCC2=O)c1ccncc1 (single isomer, unassigned) [Example 82a, (*R)-3-Methoxy-4-(((8-methyl-4-oxochroman-7-yl)oxy)(pyridin-4-yl)methyl)benzamide] | 710 | > 15000
15 | NC(=O)c1ccc([C@H](Oc2ccc3c(c2)OCCC3=O)c2ccncc2N)cc1 (single isomer, unassigned) [Example 27b, (*S)-4-((3-aminopyridin-4-yl)((4-oxochroman-7-yl)oxy)methyl)benzamide] | 6400 | > 15000
16 | NC(=O)c1ccccc1[C@H](Oc1ccc2c(c1)OCCC2=O)c1ccncc1 (single isomer, unassigned) [Example 8a, (*R)-2-(((4-Oxochroman-7-yl)oxy)(pyridin-4-yl)methyl)benzamide] | 680 | > 15000
17 | N#Cc1ccc([C@H](Oc2ccc3c(c2)OCCC3=O)c2ccncc2)cc1 (single isomer, unassigned) [Example 10b, (*S)-4-(((4-oxochroman-7-yl)oxy)(pyridin-4-yl)methyl)benzonitrile] | 910 | > 15000
18 | COc1cc(C(N)=O)ccc1[C@@H](Oc1ccc2c(c1C)OCCC2=O)c1ccncc1 (single isomer, unassigned) [Example 82b, (*S)-3-Methoxy-4-(((8-methyl-4-oxochroman-7-yl)oxy)(pyridin-4-yl)methyl)benzamide] | 620 | 5700
